In ChEMBL document CHEMBL1150671, “Online analysis of xestodecalactones A-C, novel bioactive metabolites from the fungus Penicillium cf. montanense and their subsequent isolation from the sponge Xestospongia exigua” (2002):
Active and inactive are the calls of the source. No cut-off for these calls is given here.

Experiments:
Bacillus subtilis = assay: Antibacterial activity against Bacillus subtilis 168; type: functional, organism-based; settings: subsp. subtilis str. 168
Staphylococcus aureus = assay: Antibacterial activity against Staphylococcus aureus ATCC 25923; type: functional, organism-based
Escherichia coli [1] = assay: Antibacterial activity against Escherichia coli ATCC 25922; type: functional, organism-based
Escherichia coli [2] = assay: Antibacterial activity against Escherichia coli HB 101; type: functional, organism-based
Candida albicans [3] = assay: Antifungal activity against Candida albicans at 100 umol by agar diffusion assay; type: functional
Candida albicans [4] = assay: Antifungal activity against Candida albicans at 50 umol by agar diffusion assay; type: functional
Candida albicans [5] = assay: Antifungal activity against Candida albicans at 20 umol by agar diffusion assay; type: functional

Compound | Activity (Bacillus subtilis) | Activity (Staphylococcus aureus) | Activity (Escherichia coli [1]) | Activity (Escherichia coli [2]) | inhibition zone (IZ) (Candida albicans [3]) | inhibition zone (IZ) (Candida albicans [4]) | inhibition zone (IZ) (Candida albicans [5])
CC1C/C=C/C(=O)c2c(O)cc(O)cc2CC(=O)O1 (centres undefined) | inactive | inactive | inactive | inactive |  |  | 
C[C@@H]1C[C@H](O)CC(=O)c2c(O)cc(O)cc2CC(=O)O1 [XESTODECALACTONE B] | inactive | inactive | inactive | inactive | 25 mm | 12 mm | 7 mm
C[C@H]1CCC[C@@H](O)CC(=O)c2c(O)cc(O)cc2CC(=O)O1 | inactive | inactive | inactive | inactive |  |  | 
C[C@H]1CCC[C@H](O)CC(=O)c2c(O)cc(O)cc2CC(=O)O1 | inactive | inactive | inactive | inactive |  |  | 
C[C@@H]1C[C@H](O)CCCC(=O)CC(=O)O1 | inactive | inactive | inactive | inactive |  |  | 
C[C@H]1CCCCCC(=O)c2c(O)cc(O)cc2CC(=O)O1 | inactive | inactive | inactive | inactive |  |  | 
C[C@@H]1CCCC(=O)c2c(O)cc(O)cc2CC(=O)O1 | inactive | inactive | inactive | inactive |  |  | 
C[C@H]1C[C@H](O)CC(=O)c2c(O)cc(O)cc2CC(=O)O1 | inactive | inactive | inactive | inactive |  |  | 
C[C@@H]1CCCC(=O)C[C@@H](O)CC(=O)O1 | inactive | inactive | inactive | inactive |  |  | 
